The values that follow come from patent publication US9296745B2, “Diacylglycerol acyltransferase 2 inhibitors” (Pfizer Inc., priority 2012, dated 2016).

The target in the experiment is Human DGAT2 (hDGAT2) (Homo sapiens (Human), UniProt Q96PD7). As to the kind of experiment: In vitro DGAT2 assay, IC50 determination with hDGAT2 membrane fraction. The class given is biochemical. The settings on record: geometric mean; background for complete inhibition of DGAT2 obtained with 50 μM (1R,2R)-2-({3′-Fluoro-4′-[(6-fluoro-1,3-benzothiazol-2-yl)amino]-1,1′-biphenyl-4-yl}carbonyl)cyclopentanecarboxylic acid; read-out: DGAT2 IC50. Here is the method:
Recombinant baculovirus for the FLAG-tagged hDGAT2 was generated in SF9 insect cells using Bac-to-Bac baculovirus expression system (Invitrogen) according to the manufacturer's protocol. For the expression of hDGAT2, SF9 cells (20 L) grown in Sf900II media were infected with hDGAT2 baculovirus at a multiplicity of infection of 1 in a Wave Bioreactor System 20/50P wave bag (GE Healthcare). After 40 hours of infection, the cells were then harvested by centrifugation at 5,000×g. The cell pellets were washed by resuspending in phosphate buffered saline (PBS) and collected by centrifugation at 5,000×g. The cell paste was flash frozen in liquid N2 and stored at −80° C. until needed. All operations below were at 4° C. unless otherwise noted. The cells were resuspended in lysis buffer (50 mM Tris-HCl, pH 8.0, 250 mM sucrose) including 1 mM ethylenediaminetetraacetic acid (EDTA) and the complete protease inhibitor cocktail (Roche Diagnostics) at a ratio of 3 ml buffer per 1 g cell paste. The cells were lysed by dounce homogenizer. The cell debris was removed by centrifugation at 1,000×g for 20 min, and the supernatant was centrifuged at 100,000×g for 1 hour. The resulting pellet was rinsed three times by filling ultracentrifuge tubes to the top with ice cold PBS before decanting. The washed pellet was resuspended with gentle stirring for 1 hour in lysis buffer containing 8 mM 3-[(3-cholamidopropyl)dimethylammonio]-1-propanesulfonate (CHAPS) at a ratio of 1 mL buffer per 1 g of original cell paste and centrifuged again at 100,000×g for 1 hour. The resulting supernatant (hDGAT2 membrane fraction) was aliquotted, flash frozen in liquid N2, and stored at −80° C. until use.
To 1 μL of compounds dissolved in 100% DMSO and spotted at the bottom of each well, 5 μL of 0.04% bovine serum albumin (BSA) (fatty acid free, Sigma Aldrich) was added and the mixture was incubated at room temperature for 20 minutes. To this mixture, 10 μL of hDGAT2 membrane fraction (0.01 mg/mL) diluted in 100 mM Hepes-NaOH, pH 7.4, 20 mM MgCl2 containing 200 nM methyl arachidonyl fluorophosphonate (Cayman Chemical; dried from ethyl acetate stock solution under argon gas and dissolved in DMSO as 5 mM stock) was added. […] The reaction mixtures were incubated at room temperature for 40 min and the reactions were stopped by addition of 5 μL of 1% H3PO4. After the addition of 45 μL MicroScint-E (Perkin-Elmer), plates were sealed with Top Seal-A covers (Perkin-Elmer) and phase partitioning of substrates and products was achieved using a HT-91100 microplate orbital shaker (Big Bear Automation, Santa Clara, Calif.). Plates were centrifuged at 2,000×g for 1 min in an Allegra 6R Centrifuge (Beckman Coulter) and then were sealed again with fresh covers before reading in a 1450 Microbeta Wallac Trilux Scintillation Counter (Perkin Elmer). DGAT2 activity was measured by quantifying the generated product [^14C]tridecanoylglycerol in the upper organic phase.
Inhibitors were tested at eleven different concentrations to generate IC50 values for each compound. […] Results are reported as geometric mean IC50 values.

The structures appear in SMILES notation.

Sequence of Human DGAT2 (hDGAT2) (Q96PD7 whole entry): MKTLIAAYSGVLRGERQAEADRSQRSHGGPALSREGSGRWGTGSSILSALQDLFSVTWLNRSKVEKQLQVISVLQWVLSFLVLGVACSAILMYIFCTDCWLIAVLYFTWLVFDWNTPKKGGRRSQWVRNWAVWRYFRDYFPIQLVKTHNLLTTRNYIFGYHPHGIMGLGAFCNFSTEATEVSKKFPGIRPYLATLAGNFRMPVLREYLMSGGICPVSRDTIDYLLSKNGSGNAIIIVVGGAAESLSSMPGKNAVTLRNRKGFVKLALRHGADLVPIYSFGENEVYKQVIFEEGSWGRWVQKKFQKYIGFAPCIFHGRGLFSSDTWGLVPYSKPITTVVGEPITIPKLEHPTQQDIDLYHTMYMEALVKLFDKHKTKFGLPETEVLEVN

`c1cc(-c2nc3ccc(N4CCCC(c5nnc6n5CCC6)C4)nc3[nH]2)nc(C2CC2)c1` (racemic) [Example 169, 2-(6-Cyclopropylpyridin-2-yl)-5-(3-(6,7-dihydro-5H-pyrrolo[2,1-c][1,2,4]triazol-3-yl)piperidin-1-yl)-3H-imidazo[4,5-b]pyridine]: the IC50 (in general, the concentration at which inhibition is half-maximal) was found to be 292 nM.

Consider `CC(C)COC(=O)N1CCCC(c2nc3ccc(N4CCC[C@@H](C(=O)N5CCCC5)C4)nc3[nH]2)C1` (stereo in doubt) [Example 61, (R)-iso-Butyl 3-(5-(3-(pyrrolidine-1-carbonyl)piperidin-1-yl)-3H-imidazo[4,5-b]pyridine-2-yl)piperidine-1-carboxylate], for which the IC50 came out at 86.4 nM.

Take `O=C([C@@H]1CCCN(c2ccc3nc(-c4cccc(OC(F)(F)F)c4)[nH]c3n2)C1)N1CCCC1` [Example 1, (R)-Pyrrolidin-1-yl(1-(2-(3-(trifluoromethoxy)phenyl)-3H-imidazo[4,5-b]pyridin-5-yl)piperidin-3-yl)methanone]: the IC50 came out at 1.7 nM.

As for `CC(C)Cc1csc(-c2nc3ccc(N4CCC[C@@H](C(=O)N5CCCC5)C4)nc3[nH]2)n1` [Example 2, (R)-(1-(2-(4-Isobutylthiazol-2-yl)-3H-imidazo[4,5-b]pyridin-5-yl)piperidin-3-yl)(pyrrolidin-1-yl)methanone], the IC50 worked out at 2.71 nM.

In the case of `O=C([C@@H]1CCCN(c2ccc3nc(-c4cccc(-n5cccn5)c4)[nH]c3n2)C1)N1CCCC1` [Example 3, (R)-(1-(2-(3-(1H-Pyrazol-1-yl)phenyl)-3H-imidazo[4,5-b]pyridin-5-yl)piperidin-3-yl)(pyrrolidin-1-yl)methanone], the IC50 came to 4.82 nM.

Take `CC(C)c1csc(-c2nc3ccc(N4CCC[C@@H](C(=O)N5CCCC5)C4)nc3[nH]2)n1` [Example 4, (R)-(1-(2-(4-Isopropylthiazol-2-yl)-3H-imidazo[4,5-b]pyridin-5-yl)piperidin-3-yl)(pyrrolidin-1-yl)methanone]: the IC50 is 6.64 nM.

Take `Cc1cccc(-c2nc3ccc(N4CCC[C@@H](C(=O)N5CCCC5)C4)nc3[nH]2)c1` [Example 5, (R)-Pyrrolidin-1-yl(1-(2-m-tolyl-3H-imidazo[4,5-b]pyridin-5-yl)piperidin-3-yl)methanone]: the IC50 is 8.24 nM.

Take `O=C([C@@H]1CCCN(c2ccc3nc(-c4cccc(-c5cnco5)c4)[nH]c3n2)C1)N1CCCC1` [Example 6, (R)-(1-(2-(3-(Oxazol-5-yl)phenyl)-3H-imidazo[4,5-b]pyridin-5-yl)piperidin-3-yl)(pyrrolidin-1-yl)methanone]: the IC50 is 11.5 nM.

As for `O=C([C@@H]1CCCN(c2ccc3nc(-c4cncc(Cl)c4)[nH]c3n2)C1)N1CCCC1` [Example 7, (R)-(1-(2-(5-Chloropyridin-3-yl)-3H-imidazo[4,5-b]pyridin-5-yl)piperidin-3-yl)(pyrrolidin-1-yl)methanone], the IC50 is 16.3 nM.

For `CNS(=O)(=O)c1cccc(-c2nc3ccc(N4CCC[C@@H](C(=O)N5CCCC5)C4)nc3[nH]2)c1` [Example 8, (R)-N-Methyl-3-(5-(3-(pyrrolidine-1-carbonyl)piperidin-1-yl)-3H-imidazo[4,5-b]pyridin-2-yl)benzenesulfonamide], the IC50 was 21.1 nM.

As for `O=C([C@@H]1CCCN(c2ccc3nc(-c4cnn(-c5ccccc5)c4)[nH]c3n2)C1)N1CCCC1` [Example 9, (R)-(1-(2-(1-Phenyl-1H-pyrazol-4-yl)-3H-imidazo[4,5-b]pyridin-5-yl)piperidin-3-yl)(pyrrolidin-1-yl)methanone], the IC50 came to 22.1 nM.

Regarding `O=C([C@@H]1CCCN(c2ccc3nc(-c4ccnc(N5CCCC5)n4)[nH]c3n2)C1)N1CCCC1` [Example 10, (R)-Pyrrolidin-1-yl(1-(2-(2-(pyrrolidin-1-yl)pyrimidin-4-yl)-3H-imidazo[4,5-b]pyridin-5-yl)piperidin-3-yl)methanone], the IC50 came out at 29.2 nM.

In the case of `Cc1csc(-c2nc3ccc(N4CCC[C@@H](C(=O)N5CCCC5)C4)nc3[nH]2)n1` [Example 11, (R)-(1-(2-(4-Methylthiazol-2-yl)-3H-imidazo[4,5-b]pyridin-5-yl)piperidin-3-yl)(pyrrolidin-1-yl)methanone], the 50% inhibitory concentration (IC50) came out at 35 nM.

For the compound `O=C([C@@H]1CCCN(c2ccc3nc(-c4cccc5ccnn45)[nH]c3n2)C1)N1CCCC1` [Example 12, (R)-(1-(2-(Pyrazolo[1,5-a]pyridin-7-yl)-3H-imidazo[4,5-b]pyridin-5-yl)piperidin-3-yl)(pyrrolidin-1-yl)methanone], the IC50 is 54.7 nM.

In the case of `N#Cc1ccc(-c2nc3ccc(N4CCC[C@@H](C(=O)N5CCCC5)C4)nc3[nH]2)cc1` [Example 13, (R)-4-(5-(3-(Pyrrolidine-1-carbonyl)piperidin-1-yl)-3H-imidazo[4,5-b]pyridin-2-yl)benzonitrile], the IC50 turned out to be 63.6 nM.

On to `CC(C)(O)c1cc(-c2nc3ccc(N4CCC[C@@H](C(=O)N5CCCC5)C4)nc3[nH]2)ccn1` [Example 14, (R)-(1-(2-(2-(2-Hydroxypropan-2-yl)pyridin-4-yl)-3H-imidazo[4,5-b]pyridin-5-yl)piperidin-3-yl)(pyrrolidin-1-yl)methanone], for which the IC50 worked out at 72.8 nM.

Regarding `O=C([C@@H]1CCCN(c2ccc3nc(-c4ccnc(NC5CC5)n4)[nH]c3n2)C1)N1CCCC1` [Example 15, (R)-(1-(2-(2-(Cyclopropylamino)pyrimidin-4-yl)-3H-imidazo[4,5-b]pyridin-5-yl)piperidin-3-yl)(pyrrolidin-1-yl)methanone], the IC50 came out at 89.6 nM.

In the case of `N#Cc1cncc(-c2nc3ccc(N4CCC[C@@H](C(=O)N5CCCC5)C4)nc3[nH]2)c1` [Example 16, (R)-5-(5-(3-(Pyrrolidine-1-carbonyl)piperidin-1-yl)-3H-imidazo[4,5-b]pyridin-2-yl)nicotinonitrile], the IC50 was 102 nM.

For the compound `Cc1nc(-c2nc3ccc(N4CCC[C@@H](C(=O)N5CCCC5)C4)nc3[nH]2)cs1` [Example 17, (R)-(1-(2-(2-Methylthiazol-4-yl)-3H-imidazo[4,5-b]pyridin-5-yl)piperidin-3-yl)(pyrrolidin-1-yl)methanone], the IC50 was 118 nM.

With `O=C([C@@H]1CCCN(c2ccc3nc([C@H]4C[C@H]4c4ccccc4)[nH]c3n2)C1)N1CCCC1` [Example 18, ((R)-1-(2-((1S,2R)-2-Phenylcyclopropyl)-3H-imidazo[4,5-b]pyridin-5-yl)piperidin-3-yl)(pyrrolidin-1-yl)methanone], the IC50 amounted to 196 nM.

With `O=C([C@@H]1CCCN(c2ccc3nc(-c4ccc5nccn5c4)[nH]c3n2)C1)N1CCCC1` [Example 19, (R)-(1-(2-(Imidazo[1,2-a]pyridin-6-yl)-3H-imidazo[4,5-b]pyridin-5-yl)piperidin-3-yl)(pyrrolidin-1-yl)methanone], the IC50 stood at 208 nM.

Turning to `Cn1cc(Cl)c(-c2nc3ccc(N4CCC[C@@H](C(=O)N5CCCC5)C4)nc3[nH]2)n1` [Example 20, (R)-(1-(2-(4-Chloro-1-methyl-1H-pyrazol-3-yl)-3H-imidazo[4,5-b]pyridin-5-yl)piperidin-3-yl)(pyrrolidin-1-yl)methanone], the IC50 turned out to be 221 nM.

As for `O=C([C@@H]1CCCN(c2ccc3nc(-c4ccccc4F)[nH]c3n2)C1)N1CCCC1` [Example 21, (R)-(1-(2-(2-Fluorophenyl)-3H-imidazo[4,5-b]pyridin-5-yl)piperidin-3-yl)(pyrrolidin-1-yl)methanone], the IC50 amounted to 346 nM.

Consider `CC(C)(c1ccccc1)c1nc2ccc(N3CCC[C@@H](C(=O)N4CCCC4)C3)nc2[nH]1` [Example 22, (R)-(1-(2-(2-Phenylpropan-2-yl)-3H-imidazo[4,5-b]pyridin-5-yl)piperidin-3-yl)(pyrrolidin-1-yl)methanone], for which the 50% inhibitory concentration (IC50) is 357 nM.

In the case of `CC(C)c1cccc(-c2nc3ccc(N4CCC[C@@H](C(=O)N5CCCC5)C4)nc3[nH]2)c1O` [Example 23, (R)-(1-(2-(2-Hydroxy-3-isopropylphenyl)-3H-imidazo[4,5-b]pyridin-5-yl)piperidin-3-yl)(pyrrolidin-1-yl)methanone], the IC50 is 432 nM.
